Earlier results, collected in US20070160667A1, “Controlled release formulation of divalproex sodium” (priority 2006, published 2007).
Like-named read-outs stand apart in the source and are kept apart here.

elimination half-life (in adults): six and seventeen
elimination half-life (in children): four and fourteen
Compound: CCCC(CCC)C(=O)O [valproic acid, 2-Propylpentanoic acid]
